Data on 106 compounds can be found in a melting point compilation (Tetko et al.).

As usually defined, the melting point is the temperature of the solid-liquid transition.

In turn, `CCOC(=O)C12C(c3cc(Br)ccc3OP1(=O)OCC)C1(C(=O)OCC)C2c2cc(Br)ccc2OP1(=O)OCC` (stereo unspecified) registered a melting point of 272 to 274 °C.
In turn, `N#Cc1cccnc1Cl` displayed a melting point of 107 to 109 °C.
As for `Cc1ccc(Sc2ncccc2C(=O)Cl)cc1`, the melting point was 102 to 104 °C.
Take `CCOC(=O)C(O)(c1ccc(N)c(OC)c1)C(F)(F)F` (stereo unspecified): the melting point was 97 to 99 °C.
On to `CCC(C)C(NC(=O)OCC1c2ccccc2-c2ccccc21)C(=O)O` (stereo unspecified), for which the melting point lay within 146 to 149 °C.
As for `Cc1cccc2c1sc1c(C)cccc12`, the melting point was 147 to 153 °C.
In turn, `Cc1cc(OC(=O)N(C)C)nn1C(=O)N(C)C` displayed a melting point of 69.5 °C.
Take `N#Cc1c(C(F)(F)F)cc(Cl)nc1Cl`: the melting point fell in the range of 38 to 40 °C.
Compound `c1coc(CSSCc2ccco2)c1` showed a melting point of 10 °C.
Compound `N#Cc1c[nH]nc1N` showed a melting point of 175 °C.
`OCCc1ccc2ccccc2n1` gave a melting point of 103 °C.
`CCC(C)c1cc([N+](=O)[O-])cc([N+](=O)[O-])c1O` (stereo unspecified) had a melting point of 40 °C.
Next, `COC1=C(O)C(=O)C(C)=C(O)C1=O`: 202 °C; `O=C1CCCCC1C1=CCCCC1` (stereo unspecified): -78 °C; `C=C(C)C(C)=O`: -54 °C.
The compound `O=C(O)c1cccnc1Br` displayed a melting point of 254 °C.
Compound `CC(C)S(=O)(=O)c1csc(C(=O)O)c1N` displayed a melting point of 158 °C.
Compound `Nc1ccc(C(F)(F)F)cc1I` displayed a melting point of 51 °C.
The compound `COC(=O)C1=C(C)NC(=O)C1CC(=O)O` (stereo unspecified) had a melting point of 160 to 162 °C.
`COc1ccc2cnc(C)cc2c1`: the melting point came to 115 °C.
The compound `O=Cc1ccc(-c2cccs2)s1` showed a melting point of 57 to 58 °C.
As for `ClC=C(Cl)C(Cl)=CCl`, the melting point is -4 °C.
As for `COC(=O)c1sc(C(F)(F)F)c(-c2ccccc2)c1N`, the figure is 119 to 120 °C.
As to `O=c1oc(=O)n(Cc2ccccc2)c2ccccc12`, the melting point was 136 to 139 °C.
On to `NC(Cc1ccc(Br)cc1)C(=O)O` (racemic), for which the melting point lay in the range of 262 to 263 °C.
With `NC(CCP(=O)(O)O)C(=O)O` (racemic), the melting point was in the range of 225 to 228 °C.
Regarding `O=C(Cl)CCCCl`, the melting point is -47 °C.
As to `NC(=O)CC(N)C(=O)O` (stereo unspecified), the melting point is 234 °C.
`OC(c1ccccc1)c1c(F)c(F)c(F)c(F)c1F` (stereo unspecified) had a melting point of 54 to 57 °C.
`COC(=O)NC=Cc1ccc(C=CNC(=O)OC)cc1`: the melting point was 360 °C.
Next, `O=c1[nH]c(=O)c2cn[nH]c2[nH]1`: 300 °C.
`c1cc(-c2csnn2)ccc1OCC1CO1` (stereo unspecified) yielded a melting point of 70 to 72 °C.
In turn, `Nc1cccnc1Cl` registered a melting point of 78 °C.
`O=Cc1ccccc1N1CCN(c2ccc(C(F)(F)F)cn2)CC1` had a melting point of 106 to 107 °C.
`Cc1ccc(CS(=O)(=O)Cl)cc1` registered a melting point of 80 to 85 °C.
Next, `CC(=O)Nc1ccc([N+](=O)[O-])cn1`: 200 °C.
On to `NCCOCCO`, for which the melting point was -11 °C.
In turn, `O=Nc1ccc(O)c(N=O)c1O` came in with a melting point of 168 °C.
Consider `CN1C(=O)C(=NNc2ccc(F)cc2)C(=O)N(C)C1=O`, for which the melting point turned out to be 191 °C.
Regarding `Cc1cccc2c1Cc1ccccc1-2`, the melting point is 85 °C.
For `CCC1(O)CCC2C3CCC4=CC(=O)CCC4C3CCC21C` (stereo unspecified), the melting point was 140 °C.
For `C=COCC(CC)CCCC` (stereo unspecified), the melting point is -100 °C.
Compound `Cc1c(Cl)c(Cl)c(C)c(Cl)c1Cl` had a melting point of 216 °C.
As for `CC(C)(C)c1cnc(C(=O)Nc2cccc(Br)c2)cn1`, the figure is 113 to 114 °C; as for `O=C1Nc2ccccc2C1=Nn1c(S)nnc1C(F)(F)F`, 300 °C; as for `Cc1ccc(Sc2ccc(C=CC(=O)O)cc2[N+](=O)[O-])cc1`, 217 to 218 °C.
Consider `O=Cc1scc2c1OCCO2`, for which the melting point lay in the range of 138 to 140 °C.
Next, `CCS(=O)(=O)c1nnc(N(C)C(=O)NC)s1`: 156 °C; `CC=Cc1cccc(OC)c1O`: 81 °C; `CC(C)(O)C(Br)(Br)Br`: 169 °C.
Compound `Nc1ccc(C=Cc2ccc(N)cc2OS(=O)(=O)c2ccccc2)c(OS(=O)(=O)c2ccccc2)c1` gave a melting point of 250 °C.
Next, `O=C(c1ccccc1)c1ccc(OCc2ccccc2)cc1`: 82 °C; `COC(=O)C=Cc1ccc(C=CC(=O)OC)c(NC(C)=O)c1`: 168 °C; `Cc1nc(Cl)ccc1I`: 32 °C.
Next, `Cc1cc(C(=O)O)c(C)[nH]1`: 200 °C; `O=C(Nc1cccc(N=[N+]([O-])c2cccc(NC(=O)c3ccccc3)c2)c1)c1ccccc1`: 247 °C; `Cc1nn(-c2ccccc2)nc1C(=O)O`: 203 °C.
`CCC(C)C(C)(COC(N)=O)COC(N)=O` (stereo unspecified) had a melting point of 77 °C.
Regarding `Cn1c(=O)c(C2=NNC(=O)C2=Cc2cccc(O)c2)c(O)c2ccccc21`, the melting point stood at 290 °C.
The compound `CC1(C)C=[N+]([O-])C(C)(C)C=[N+]1[O-]` showed a melting point of 298 to 300 °C.
Compound `O=C(O)c1cccc(C(=O)O)c1C(=O)O` registered a melting point of 200 °C.
With `O=[N+]([O-])c1ccc2c3c(ccc(C(Cl)=Cc4ccccc4)c13)CC2`, the melting point stood at 161 °C.
Compound `O=C(O)c1cc([N+](=O)[O-])cc(S(=O)(=O)Nc2ccccc2)c1` showed a melting point of 177 °C.
Take `COc1cccc(OC)c1N=C=O`: the melting point fell in the range of 45 to 47 °C.
`COC1C(O)C(C)OC(OC2C(Oc3cccc4c(O)c5c(=O)oc6ccc(C)c7c(=O)oc(c34)c5c67)OC(C)C(O)C2O)C1O` (stereo unspecified) registered a melting point of 185 °C.
The compound `CSSC` displayed a melting point of -85 °C.
As to `CC(C)CC(N)P(=O)(O)O` (stereo unspecified), the melting point lay within 274 to 280 °C.
As for `CC1C(=O)C23C(O)CC4C(C)(C)CC(O)CC4(C)C2CCC1C3O` (stereo unspecified), the figure is 377 °C; as for `COC(=O)CCC(C)C1CCC2C3CCC4CCCCC4(C)C3CC(=O)C12C` (stereo unspecified), 109 °C.
`O=C(C1=NOC2C(=O)N(c3ccc(Cl)cc3)C(=O)C12)c1ccc2ccccc2c1` (stereo unspecified) yielded a melting point of 121 °C.
With `CC(=O)Oc1c(-c2cccc(-c3[nH]c4cc([N+](=O)[O-])ccc4c3OC(C)=O)c2)[nH]c2cc([N+](=O)[O-])ccc12`, the melting point turned out to be 304 °C.
As to `C(=Cc1ccc2ccc3ccccc3c2c1)c1ccc2ccccc2c1`, the melting point came out at 213 °C.
For `O=C(O)c1c(Cl)c(Cl)c(Cl)c(Cl)c1C(=O)O`, the melting point was 98 °C.
In the case of `O=c1nc2ccccc2nc(C(F)(F)F)c1NNc1cccc2ccccc12`, the melting point was 171 °C.
`Cn1c(/C(C#N)=N/Nc2ccc(Cl)cc2)nc2ccccc21` displayed a melting point of 215 °C.
Compound `N#Cc1ccc(N)cc1Cl` showed a melting point of 118 °C.
`Cc1cncc(Oc2cccc(N)c2)n1` displayed a melting point of 59.5 to 61 °C.
`CC(=O)OC1=c2ccc([N+](=O)[O-])cc2=NC1=c1ccc(=C2N=c3cc([N+](=O)[O-])ccc3=C2OC(C)=O)cc1`: the melting point turned out to be 280 °C.
Next, `O=CNC1CCCCC1`: 39.5 °C; `COc1cc(OC)cc(C(C)=O)c1`: 40 °C.
Take `CC(=O)O[C@@H]1[C@@H](OC(C)=O)[C@H](C)O[C@@H](OCc2ccccc2)[C@@H]1OC(C)=O`: the melting point lay within 110 to 113 °C.
`Oc1c(I)cc(Cl)c2cccnc12`: the melting point was 178 °C.
As for `N#Cc1c(N2CCCC2)cc(Cl)nc1N1CCCC1`, the melting point was 132 to 140 °C.
In the case of `O=[N+]([O-])c1ccc(C(Cl)C(Cl)c2cccc(C(Cl)C(Cl)c3ccc([N+](=O)[O-])cc3[N+](=O)[O-])c2)c([N+](=O)[O-])c1` (stereo unspecified), the melting point is 90 to 108 °C.
As for `CCCC=C1C(=O)C2(C)CCC1C2(C)C` (stereo unspecified), the figure is 120 °C.
In the case of `Cc1ccc(NC=C2C(=O)NN=C2c2c(O)c3ccccc3n(C)c2=O)cc1`, the melting point amounted to 282 °C.
Next, `COC1CCC(CC(=O)O)CC1` (stereo unspecified): 78 °C; `COc1cc(/C=C/C(=O)O)ccc1O`: 173 °C.
As for `Nc1nc(N)sc(=S)n1`, the figure is 360 °C; as for `COc1ccccc1C=C(C(=O)O)c1ccccc1`, 158 °C.
Next, `Cc1ccc(C(=O)/C=C/c2ccc(Br)o2)o1`: 69 °C; `CCCCCCOC(=O)CCCC`: -63.1 °C.
Turning to `c1ccc2nncnc2c1`, the melting point was 75.8 °C.
As for `CCOC(=O)CC(=O)C(F)(F)F`, the figure is -39 °C; as for `CCN(CC)c1ccc(N=C=S)cc1`, 32 °C; as for `O=S(=O)(N(c1ccccn1)S(=O)(=O)C(F)(F)F)C(F)(F)F`, 39 °C.
On to `Brc1ccc2c(c1)Oc1ccccc1O2`, for which the melting point is 90 °C.
As for `O=[N+]([O-])c1ccc(-c2csc3nc4ccccc4n23)cc1`, the figure is 232 to 235 °C; as for `O=c1ccc2cc3ccoc3c(O)c2o1`, 252 °C.
Next, `CCC12CC3CC(C1)CC(C(=O)O)(C3)C2`: 94 to 96 °C; `C(#Cc1ccc(/N=C/c2ccccc2)cc1)c1ccc(/N=C/c2ccccc2)cc1`: 207 °C.
`O=C(O)c1cc(Oc2ccc(C(F)(F)F)cc2Cl)ccc1[N+](=O)[O-]` yielded a melting point of 155 °C.
Compound `O=C1CC2C(CC(OC(=O)c3ccccc3)C2COC(c2ccccc2)(c2ccccc2)c2ccccc2)O1` (single isomer, unassigned; (-)) returned a melting point of 183 to 185 °C.
In turn, `N#CC1CCCCC1` yielded a melting point of 11 °C.
Next, `NCc1ccc(S(N)(=O)=O)cc1`: 151 °C; `C1C2CC3CC1CC(SSC14CC5CC(CC(C5)C1)C4)(C2)C3`: 225 to 228 °C.
